Experimental findings from US8791108B2, “Inhibitors of human immunodeficiency virus replication” (priority 2011, dated 2014) are described below.

The subject of this assay is recombinant NL-Rluc virus. The assay is described as follows: Inhibition of HIV replication (NL-RLuc luciferase reporter virus, MT-2 cells). It is filed as cell-based. The settings on record: Human immunodeficiency virus 1, MT2, 120 h, read-out: Activity. (In general: In a reporter assay the amount or activity of a reporter protein is the signal.)

Molecules are shown by their SMILES.

As for `Cc1nc2cc(C(=O)NCC3CC3)nn2c(-c2cc(F)c3c(c2C)CCCO3)c1[C@H](OC(C)(C)C)C(=O)O` [Example 43, (2S)-2-(tert-butoxy)-2-(2-((cyclopropylmethyl)carbamoyl)-7-(8-fluoro-5-methylchroman-6-yl)-5-methylpyrazolo[1,5-a]pyrimidin-6-yl)acetic acid], the EC50 is 100 to 1000 nM.
